# Test results as given in publication PMC10820527, “Synthesis, Characterization, and Investigation of Anti-Inflammatory and Cytotoxic Activities of Novel Thiourea Derivatives of Naproxen” (Pharmaceutics, 2023).
# Legend:
# healthy male rats = test: Acute oral toxicity assessment (OECD Guidelines No. 423); type: in vivo, rat; details: single per os dose 10 mg/kg, sacrifice after 14 days, (absolute organ weight × 100%)/body weight
# Experimental: The acute oral toxicity was assessed in healthy male rats (n = 24, three rats per group, body weight 180–200 g) according to a previously established protocol and the OECD Guidelines No. 423 [37, 38].
# Animals were randomly assigned to the following groups: control group—rats that received single dose of 1% DMSO and experimental groups—rats that received compounds 8–14 per os in the single dose of 10 mg/kg dissolved in 1% DMSO. All rats were fasted prior to administration of compounds and during 3 h following the treatment.
# Afterwards, rats were kept in single cages and observed once daily during 14 days for clinical signs of toxicity. All behavioral changes and any signs of toxicity were recorded (fur and skin, urination (color), feces consistency, eyes, salivation, any alterations in behavior pattern). Additionally, food and water intake and the body weight were measured daily over 14 days. After accomplishing the monitoring period, rats were sacrificed, and organ weight (liver, kidney, stomach, and heart) was recorded. Relative organ weight was calculated as follows: (absolute organ weight × 100%)/body weight of rat on the day of sacrifice(1)
# COX-2 = molecular target: T1, COX-2 (Homo sapiens, UniProt P35354); test: Fluorometric COX-2 inhibitor screening kit; type: biochemical; details: mean of two measurements with standard error, read-out: COX-2 Percent of Inhibition
# T1 construct: purchased Abcam
# T1 sequence (P35354 18-604): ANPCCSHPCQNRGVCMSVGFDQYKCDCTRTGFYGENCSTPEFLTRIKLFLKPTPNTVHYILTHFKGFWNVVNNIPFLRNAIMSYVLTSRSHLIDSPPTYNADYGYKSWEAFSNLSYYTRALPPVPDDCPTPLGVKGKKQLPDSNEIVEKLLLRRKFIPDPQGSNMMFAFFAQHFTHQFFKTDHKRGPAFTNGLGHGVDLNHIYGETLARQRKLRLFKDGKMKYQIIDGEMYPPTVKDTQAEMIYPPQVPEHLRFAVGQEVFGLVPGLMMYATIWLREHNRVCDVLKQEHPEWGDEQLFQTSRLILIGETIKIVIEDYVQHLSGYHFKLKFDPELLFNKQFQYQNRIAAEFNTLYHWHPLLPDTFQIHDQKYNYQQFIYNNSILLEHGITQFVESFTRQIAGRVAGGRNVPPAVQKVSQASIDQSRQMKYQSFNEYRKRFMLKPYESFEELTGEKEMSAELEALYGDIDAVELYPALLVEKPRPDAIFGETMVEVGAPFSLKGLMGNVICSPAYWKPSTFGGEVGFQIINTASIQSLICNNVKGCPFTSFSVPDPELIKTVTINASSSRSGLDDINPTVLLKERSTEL
# Experimental: (§1) The COX-2 and 5-LOX inhibitory potential of the tested compounds was evaluated using a fluorometric COX-2 and 5-LOX inhibitor screening kit (Abcam, Cambridge, UK). These tests are based on determining the presence of prostaglandin G2 (a product of COX enzyme activity) or an intermediate generated by the enzyme 5-LOX, using fluorometric detection. The mentioned experiments were performed according to the manufacturer’s instructions.
# (§2) For the determination of COX-2 inhibitory potential of tested compounds, stock solutions (5 mM in DMSO) were diluted with the same solvent (test solutions). The test solutions were further diluted with COX assay buffer by mixing 2 µL of the corresponding test solution and 8 µL of COX assay buffer. For the preparation of inhibitory control (IC), celecoxib (2 µL) and COX assay buffer (8 µL) were mixed. Solvent control (SC) was prepared by mixing DMSO (2 µL) and the COX assay buffer (8 µL), enzyme control (EC) was 10 µL of COX assay buffer, while the samples (S) were 10 µL of diluted test solutions. IC, SC, EC, and S were transferred into corresponding wells. For the determination of 5-LOX inhibitory potential of tested compounds, stock solutions of the same concentration (5 mM) were prepared in DMSO. These solutions were further diluted with the same solvent to obtain the test solutions, which were added into the appropriate wells (2 µL). EC, SC, and IC were prepared by adding 2 µL of the assay buffer, DMSO, and zileuton into corresponding wells, respectively.
# (§3) The fluorescence of the samples was measured kinetically at 25 °C (COX-2: Ex/Em = 535/587 nm, during 10 min; 5-LOX: Ek/Em = 500/536 nm during 20 min) using a Synergi LX multi-mode microplate reader (BioTek, Shoreline, WA, USA).
# 5-LOX = molecular target: T2, 5-LOX (Homo sapiens, UniProt P09917); test: Fluorometric 5-LOX inhibitor screening kit; type: biochemical; details: mean of two measurements with standard error, read-out: 5-LOX Percent of Inhibition
# T2 construct: purchased Abcam
# T2 sequence (P09917 1-674): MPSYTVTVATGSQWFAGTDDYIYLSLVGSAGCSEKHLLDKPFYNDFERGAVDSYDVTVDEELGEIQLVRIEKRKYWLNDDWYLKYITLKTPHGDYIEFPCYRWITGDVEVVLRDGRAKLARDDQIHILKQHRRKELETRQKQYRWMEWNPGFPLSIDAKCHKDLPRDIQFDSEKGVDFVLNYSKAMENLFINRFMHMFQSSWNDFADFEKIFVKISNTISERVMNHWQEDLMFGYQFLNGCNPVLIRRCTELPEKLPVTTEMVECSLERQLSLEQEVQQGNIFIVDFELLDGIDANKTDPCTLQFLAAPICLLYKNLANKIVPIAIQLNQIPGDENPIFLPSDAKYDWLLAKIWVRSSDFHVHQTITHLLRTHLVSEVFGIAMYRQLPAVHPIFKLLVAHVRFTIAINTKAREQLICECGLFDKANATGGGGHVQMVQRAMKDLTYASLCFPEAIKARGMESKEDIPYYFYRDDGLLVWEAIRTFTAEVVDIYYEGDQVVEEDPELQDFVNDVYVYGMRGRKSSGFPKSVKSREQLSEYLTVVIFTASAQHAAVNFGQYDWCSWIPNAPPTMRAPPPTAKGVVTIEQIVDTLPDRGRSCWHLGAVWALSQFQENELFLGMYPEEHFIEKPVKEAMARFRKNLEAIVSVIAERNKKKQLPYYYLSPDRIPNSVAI
# Experimental: as §1, §2, §3
SMILES,"Relative organ weight, Heart (healthy male rats)","Relative organ weight, Kidney (healthy male rats)","Relative organ weight, Liver (healthy male rats)","Relative organ weight, Stomach (healthy male rats)",inhibition at 10 µM (COX-2),inhibition at 10 µM (5-LOX)
"COc1ccc2cc([C@H](C)C(=O)NC(=S)Nc3ccccc3)ccc2c1 [Compound 8, (S)-2-(6-methoxynaphthalen-2-yl)-N-(phenylcarbamothioyl)propanamide]",0.31 ± 0.01,0.32 ± 0.02,2.65 ± 0.15,0.51 ± 0.06,36.2 ± 16.4%,34.6 ± 5.84%
"COc1ccc2cc([C@H](C)C(=O)NC(=S)Nc3ccc(C)cc3)ccc2c1 [Compound 9, (S)-2-(6-methoxynaphthalen-2-yl)-N-(p-tolylcarbamothioyl)propanamide]",0.29 ± 0.03,0.29 ± 0.03,3.01 ± 0.27,0.56 ± 0.03,26.8 ± 6.07%,12.9 ± 5.47%
"COc1ccc2cc([C@H](C)C(=O)NC(=S)Nc3ccccc3C)ccc2c1 [Compound 10, (S)-2-(6-methoxynaphthalen-2-yl)-N-(o-tolylcarbamothioyl)propanamide]",0.34 ±0.04,0.31 ± 0.04,2.67 ± 0.15,0.58 ± 0.04,12.6 ± 4.99%,27.9 ± 0.57%
"COc1ccc2cc([C@H](C)C(=O)NC(=S)Nc3ccccc3OC)ccc2c1 [Compound 11, (S)-2-(6-methoxynaphthalen-2-yl)-N-((2-methoxyphenyl)carbamothioyl)propanamide]",0.32 ± 0.02,0.33 ± 0.05,2.83 ± 0.20,0.54 ± 0.05,16.2 ± 13.7%,31.2 ± 5.45%
"COc1ccc2cc([C@H](C)C(=O)NC(=S)Nc3ccccc3F)ccc2c1 [Compound 12, (S)-N-((2-fluorophenyl)carbamothioyl)-2-(6-methoxynaphthalen-2-yl)propanamide]",0.35 ± 0.03,0.32 ± 0.04,2.76 ± 0.36,0.59 ± 0.05,13.8 ± 6.41%,29.7 ± 8.56%
"COC(=O)[C@H](Cc1ccccc1)NC(=S)NC(=O)[C@@H](C)c1ccc2cc(OC)ccc2c1 [Compound 13, Methyl (((S)-2-(6-methoxynaphthalen-2-yl)propanoyl)carbamothioyl)phenylalaninate]",0.30 ± 0.04,0.28 ± 0.06,3.09 ± 0.27,0.50 ± 0.06,23.1 ± 9.83%,19.8 ± 13.2%
"COC(=O)[C@H](Cc1c[nH]c2ccccc12)NC(=S)NC(=O)[C@@H](C)c1ccc2cc(OC)ccc2c1 [Compound 14, Methyl (((S)-2-(6-methoxynaphthalen-2-yl)propanoyl)carbamothioyl)tryptophanate]",0.31 ± 0.02,0.29 ± 0.04,2.03 ± 0.42,0.53 ± 0.04,29.8 ± 12.1%,46.24 ± 0.4%
